Data from US6780871B2, “Methods and compositions for treating addiction disorders” (Albany Medical College, priority 2001, dated 2004).

Key:
Type in all cases: in vivo, rat
[1] = system: morphine self-administration; assay: intravenous morphine self-administration; conditions: 18-methoxycoronaridine 1 mg/kg i.p., dextromethorphan 5 mg/kg s.c.
Protocol: Dextromethorphan hydrobromide (5 mg/kg; Sigma/RBI, St. Louis, Mo.) was dissolved in saline and injected subcutaneously 20 minutes before testing. Mecamylamine hydrochloride (1 mg/kg; Sigma/RBI, St. Louis, Mo.) was dissolved in physiological saline and injected intraperitoneally 30 minutes before testing. All rats received two injections. For rats that received a single drug, half of them also received the appropriate saline/vehicle injection corresponding to each of the other two drugs.
Naive female Long-Evans derived rats (250 g; Charles River, N.Y.) were maintained on a normal 12 h light cycle (lights on at 7:00 a.m., lights off at 7:00 p.m.). For all experiments the “Principles of Laboratory Animal Care” (NIH publication No. 85-23, revised 1985, which is hereby incorporated by reference) were followed.
The intravenous self-administration procedure described in Glick et al., “18-MC Reduces Methamphetamine and Nicotine Self-administration in Rats,” NeuroReport 11:2013-2015 (2000) (“Glick I”), which is hereby incorporated by reference, was employed. Briefly, responses on either of two levers (mounted 15 cm apart on the front wall of each operant test cage) were recorded on an IBM compatible computer with a Med Associates, Inc. interface. The intravenous self-administration system consisted of polyethylene-silicone cannulas constructed according to the design of Weeks, “Long-term Intravenous Infusion,” pp. 155-168 in Myers (ed.), Methods in Psychobiology, Vol. 2, New York: Academic Press (1972) (“Weeks”), which is hereby incorporated by reference; Instech harnesses and swivels; and Harvard Apparatus infusion pumps (#55-2222). Shaping of the bar-press response was initially accomplished by training rats to bar-press for water. Cannulas were then implanted in the external jugular vein according to procedures described in Weeks, which is hereby incorporated by reference. Self-administration testing began with a 16-h nocturnal session followed by daily 1-h sessions, 5 days (Monday-Friday) a week. A lever-press response produced a 10 μl infusion of drug solution (0.01 mg of morphine sulfate) in about 0.2 s or a 50 μl infusion of drug solution (0.025 mg of methamphetamine sulfate) in about 1 s. Since all rats generally weighed 250±20 g, each response delivered approximately 0.04 mg/kg of morphine or 0.1 mg/kg of methamphetamine. Experiments to assess the effects of experimental treatments were begun when baseline self-administration rates stabilized (≦10% variation from one day to the next across 5 days), usually after 2 weeks of testing.
Each data point represents the mean (±S.E.M.) percent of baseline of 6-8 rats. Significant differences between baseline and treatment are indicated by an asterisk (paired t-test, P<0.01-0.001).
Each data point represents the mean (±S.E.M.) percent of baseline of 5-8 rats. Significant differences between baseline and treatment are indicated by an asterisk (paired t-test), P<0.05-0.01).

[2] = system: methamphetamine self-administration; assay: intravenous methamphetamine self-administration
[3] = system: nicotine self-administration; assay: nicotine self-administration; conditions: Example 7, FIGS. 11-12: mecamylamine 0.1 mg/kg i.p., 18-methoxycoronaridine 0.5 mg/kg i.p., dextromethorphan 0.5 mg/kg s.c., bupropion 5 mg/kg i.p.; 5-8 rats
[4] = Example 6, FIG. 8: mecamylamine 1 mg/kg i.p., bupropion 5 mg/kg i.p., 5-8 rats
[5] = Example 6, FIG. 9: mecamylamine 1 mg/kg i.p., 18-methoxycoronaridine 5 mg/kg i.p., dextromethorphan 10 mg/kg s.c., bupropion 10 mg/kg i.p., 5-9 rats

Row | Structure (SMILES) | effect on morphine self-administration (percent of baseline) [1, 4] | effect on methamphetamine self-administration (percent of baseline) [2, 5] | effect on nicotine self-administration (percent of baseline) [3] | effect on morphine self-administration (percent of baseline) ([1]; Example 5, FIG. 5: mecamylamine 1 mg/kg i.p., 6-8 rats) | effect on methamphetamine self-administration (percent of baseline) ([2]; Example 5, FIG. 6: mecamylamine 1 mg/kg i.p., 18-methoxycoronaridine 2 mg/kg i.p., dextromethorphan 5 mg/kg s.c., 6-7 rats)
1 | CC(NC(C)(C)C)C(=O)c1cccc(Cl)c1 (stereo not drawn) [bupropion, m-chloro-α-tert-butylaminopropiophenone] | none of the drugs administered alone, significantly decreased | none of the drugs administered alone, significantly decreased | none of the drugs administered alone, significantly decreased | – | –
2 | COc1ccc2c(c1)[C@]13CCCC[C@@H]1[C@H](C2)N(C)CC3 [dextromethorphan] | none of the drugs administered alone, significantly decreased | none of the drugs administered alone, significantly decreased | none of the drugs administered alone, significantly decreased | none of the drugs administered alone, significantly decreased | none of the drugs administered alone, significantly decreased
